Experimental data published in patent publication US7759373B2, “Large conductance calcium-activated K channel opener” (Mitsubishi Tanabe Pharma Corporation, priority 2001, dated 2010).
pEC50: −log10 of the molar value.

Tests used:
[1] = tested on: isolated rabbit urinary bladder; assay: Relaxation effect on potassium-induced contraction of isolated rabbit urinary bladder; assay type: cell-based; conditions: Oryctolagus cuniculus; 50% relaxation concentration; high-K+ (30 mM) pre-contracted rabbit bladder strips; relaxation as percentage of the maximum produced by 0.1 mM papaverine; read-out: EC50 value range
Procedure: Relaxation effect on potassium-induced contraction of isolated rabbit urinary bladder
Urinary bladder was isolated from Male NZW rabbits (2.0-3.5 kg) and immersed in ice-cold Krebs-bicarbonate solution (in mM: 118 NaCl, 4.7 KCl, 1.2, 2.5 CaCl2, MgSO4, 1.2 KH2PO4, 11 glucose, 25 NaHCO3). The urinary bladder was cut into longitudinal strips (5 mm length, 3-4 mm width) after mucosal layer was removed. Preparations were mounted in organ baths containing 10 ml of Krebs solution maintained at 37° C. and gassed with 95% O2/5% CO2. Accordingly, preparations were stretched with an initial tension of 2.0±1.0 g, and changes in isometric tension were measured by force-displacement transducer. The preparations were pre-contracted by changing organ-bath solution into high-K^+ (30 mM) Krebs solution (in mM: 92.7 NaCl, 30 KCl, 1.2, 2.5 CaCl2, MgSO4, 1.2 KH2PO4, 11 glucose, 25 NaHCO3).
After stable tension was obtained, compounds were added into organ baths cumulatively (10^−8M-10^−4M). The effects of compounds were expressed as a percentage of the maximum relaxation produced by 0.1 mM papaverine. 50% relaxation concentration (EC50) was calculated and EC50 value range (μM) of the compounds of the present invention was shown in the following Table 64 with a rank of A, B or C. These ranges are as mentioned below. 3≧C≧1≧B≧0.5≧A

[2] = tested on: rhythmic bladder contractions induced by substance P; assay: Inhibitory effect on the rhythmic bladder contractions induced by substance P in anesthetized rats; assay type: in vivo, rat; conditions: time during which frequency of rhythmic contraction was completely inhibited, 0.25 mg/kg of the compound, substance P infusion
In short: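 Urethane-anesthetized female Sprague-Dawley rats with rhythmic bladder contractions driven by i.v. substance P (0.33 μg/kg/min). Compound given i.v. in saline/0.5% Tween 80 once contractions stable 15 min; intravesical pressure monitored, duration of 100% inhibition ranked A ≥20, B ≥10, C <10 min.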

pEC50 [1]	SMILES	100% inhibition time range [2]
6.00 to 6.30	Cc1nc(-c2ccc(F)cc2)[nH]c1-c1cccnc1 [Preparation Example 187]	B (A≧20>B≧10>C (minute))
5.52 to 6.00	O=C(O)Cc1nc(-c2ccc(F)cc2)oc1-c1ccsc1 [Preparation Example 197]	C (A≧20>B≧10>C (minute))
6.00 to 6.30	O=C(O)Cc1nc(-c2ccc(F)cc2)oc1-c1ccc(F)cc1 [Preparation Example 235]	B (A≧20>B≧10>C (minute))
6.00 to 6.30	O=C(O)Cc1nc(-c2ccc(F)cc2)oc1-c1ccc(Cl)c(Cl)c1 [Preparation Example 240]	C (A≧20>B≧10>C (minute))
≥ 6.30	O=C(O)Cc1nc(-c2ccc(F)cc2)oc1-c1ccc(Cl)cc1 [Preparation Example 243]	A (A≧20>B≧10>C (minute))
5.52 to 6.00	O=C(O)Cc1nc(-c2ccc(F)cc2)oc1-c1ccc(C(F)(F)F)cc1 [Preparation Example 244]	B (A≧20>B≧10>C (minute))
5.52 to 6.00	O=C(O)Cc1nc(-c2ccc(Cl)cc2)oc1-c1ccc(Br)s1 [Preparation Example 245]	C (A≧20>B≧10>C (minute))
6.00 to 6.30	COc1ccc(-c2nc(CC(=O)O)c(-c3ccc(F)c(F)c3)o2)cc1 [Preparation Example 246]	B (A≧20>B≧10>C (minute))
5.52 to 6.00	COc1ccc(-c2nc(CC(=O)O)c(-c3ccccc3F)o2)cc1 [Preparation Example 247]	C (A≧20>B≧10>C (minute))
5.52 to 6.00	CC(C)c1ccc(-c2oc(-c3ccc(F)cc3)nc2CC(=O)O)cc1 [Preparation Example 248]	B (A≧20>B≧10>C (minute))
5.52 to 6.00	Cn1c(-c2oc(-c3ccc(F)cc3)nc2CC(=O)O)cc2ccccc21 [Preparation Example 249]	B (A≧20>B≧10>C (minute))
6.00 to 6.30	O=C(O)Cc1nc(-c2ccc(F)cc2)oc1-c1cccc(F)c1F [Preparation Example 252]	C (A≧20>B≧10>C (minute))
6.00 to 6.30	O=C(O)Cc1nc(-c2ccc(F)cc2)oc1-c1ccc(Cl)c(F)c1 [Preparation Example 253]	A (A≧20>B≧10>C (minute))
5.52 to 6.00	O=C(O)Cc1nc(-c2ccc3occc3c2)oc1-c1ccsc1 [Preparation Example 255]	B (A≧20>B≧10>C (minute))
≥ 6.30	O=C(O)Cc1nc(-c2ccc(F)cc2)oc1-c1ccc(Br)s1 [Preparation Example 256]	C (A≧20>B≧10>C (minute))
≥ 6.30	Cc1cc(-c2oc(-c3ccc(F)cc3)nc2CC(=O)O)sc1Cl [Preparation Example 257]	B (A≧20>B≧10>C (minute))
5.52 to 6.00	Cc1ccc(-c2nc(CC(=O)O)c(-c3ccccc3)o2)cc1 [Preparation Example 262]	C (A≧20>B≧10>C (minute))
≥ 6.30	O=C(O)Cc1nc(-c2cc3ccccc3s2)oc1-c1cccs1 [Preparation Example 267]	C (A≧20>B≧10>C (minute))
≥ 6.30	Cc1ccc(-c2nc(CC(=O)O)c(-c3cccs3)o2)s1 [Preparation Example 268]	C (A≧20>B≧10>C (minute))
≥ 6.30	O=C(O)Cc1nc(-c2ccc3occc3c2)oc1-c1cccs1 [Preparation Example 269]	B (A≧20>B≧10>C (minute))
6.00 to 6.30	O=C(O)Cc1nc(-c2cc3ccccc3s2)oc1-c1ccc(Cl)s1 [Preparation Example 271]	C (A≧20>B≧10>C (minute))
≥ 6.30	O=C(O)Cc1nc(-c2ccc3occc3c2)oc1-c1ccc(Cl)s1 [Preparation Example 272]	B (A≧20>B≧10>C (minute))
5.52 to 6.00	CC(C)c1ccc(-c2nc(CC(=O)O)c(-c3ccc(Cl)s3)o2)cc1 [Preparation Example 273]	C (A≧20>B≧10>C (minute))
